This is an account of results in paper PMC9542104, “Druggability Evaluation of the Neuron Derived Orphan Receptor (NOR‐1) Reveals Inverse NOR‐1 Agonists” (Chemmedchem, 2022).

Where two headings read alike, the source gives them in different places.

The target of assay [1] is T1, Gal4‐NOR‐1 (human NOR‐1 LBD) (Homo sapiens, UniProt Q92570).
T1 construct: coding for the hinge region and LBD of the canonical isoform of NOR‐1; expressed in transfected cells; host or cells: HEK293T
T1 sequence (Q92570 394-623 limits assumed): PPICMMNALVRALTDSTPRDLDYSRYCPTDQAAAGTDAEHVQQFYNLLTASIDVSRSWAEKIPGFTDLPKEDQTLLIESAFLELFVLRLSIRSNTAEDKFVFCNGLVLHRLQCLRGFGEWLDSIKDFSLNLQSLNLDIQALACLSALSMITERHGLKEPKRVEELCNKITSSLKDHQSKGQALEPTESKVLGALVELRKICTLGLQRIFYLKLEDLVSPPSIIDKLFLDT
Description: Gal4 hybrid reporter gene assay for NOR‐1 activity in HEK293T cells. The assay is classed as cell-based. The following applies: for IC50: read-out: IC50 (NOR‐1), inverse agonism; for activity on NOR‐1 / NOR‐1 activity: Gal4‐NOR‐1, 100 μM; for type of NOR‐1 modulation: Gal4‐NOR‐1; for remaining NOR‐1 activity: Gal4‐NOR‐1, remaining activity at maximum inverse agonist effect. How it is done: The screening assay was based on the Gal4 hybrid system[13] and employed a chimeric receptor composed of the human NOR‐1 LBD and the Gal4 DNA binding domain from yeast. Firefly luciferase under the control of five tandem repeats of the Gal4 response element served as reporter gene and constitutively expressed renilla luciferase was used for normalization and toxicity monitoring. Control experiments were conducted with the ligand‐independent transcriptional inducer Gal4‐VP16[14, 15] (replacing Gal4‐NOR‐1) to exclude non‐specific effects.
Hybrid reporter gene assays. The reporter gene assay was performed as reported previously[25] in HEK293T cells in 96‐well format using pFR‐Luc (Stratagene, La Jolla, CA, USA; reporter), pRL‐SV40 (Promega, Madison, WI, USA; control) and the Gal4‐NOR‐1 fusion receptor plasmid pFA‐CMV‐hNOR‐1‐LBD coding for the hinge region and LBD of the canonical isoform of NOR‐1 or pECE‐SV40‐Gal4‐VP16[15] […] In the primary screening, the core set of the Prestwick Drug Fragments Library was tested at 100 μM in two biologically independent repeats. All other samples were tested in duplicates in at least three biologically independent repeats. Luminescence was measured with a Spark 10 M luminometer (Tecan Group AG, Mannedorf, Switzerland), firefly luciferase data were divided by Renilla luciferase data and multiplied by 1000 to obtain relative light units (RLU). Fold activation was obtained by dividing the mean RLU of a test compound at a respective concentration by the mean RLU of untreated control. Dose‐response curves were fitted with the equation “[Agonist]/[Inhibitor] vs. response (three parameters)” in GraphPad Prism (version 7.00, GraphPad Software, La Jolla, CA, USA).
(A reporter such as luciferase makes a cellular process visible.)

In assay [2] the test system is NOR‐1. The following applies: cited from earlier work.
For assay [3], the target named is T2, Gal4‐VP16 (Saccharomyces cerevisiae, UniProt P04386).
T2 construct: host or cells: HEK293T
The assay is described as follows: Gal4‐VP16 control reporter gene assay in HEK293T cells. To be noted: 100 μM. The assay is classed as cell-based. The text has this:
To rapidly probe druggability of NOR‐1 and identify potential ligand scaffolds, we have established a robust reporter gene assay to monitor NOR‐1 activity and screened a medium size fragment library for NOR‐1 modulation. The screening assay was based on the Gal4 hybrid system[13] and employed a chimeric receptor composed of the human NOR‐1 LBD and the Gal4 DNA binding domain from yeast. Firefly luciferase under the control of five tandem repeats of the Gal4 response element served as reporter gene and constitutively expressed renilla luciferase was used for normalization and toxicity monitoring. Control experiments were conducted with the ligand‐independent transcriptional inducer Gal4‐VP16[14, 15] (replacing Gal4‐NOR‐1) to exclude non‐specific effects. The commercially available fragment screening library (core set of the Prestwick drug fragments library) comprised 480 compounds with favorable fragment properties (Figure 1a) and offered high structural diversity as illustrated by low average pairwise Jaccard‐Tanimoto similarity computed on Morgan fingerprints[16] (median 0.13; Figure 1b) and by a total of 77 unique Murcko scaffolds.[17] […]
Hybrid reporter gene assays. […] Luminescence was measured with a Spark 10 M luminometer (Tecan Group AG, Mannedorf, Switzerland), firefly luciferase data were divided by Renilla luciferase data and multiplied by 1000 to obtain relative light units (RLU). […]

The subject of assay [4] is MYC mRNA expression in HeLa cells. The format is cell-based. The following applies: 16 h, 1 at 100 and 300 μM, 19 at 10 and 30 μM, GAPDH as reference gene, n=4. The text has this:
The following primers were used: GAPDH: fw: [NT].

In assay [5] the target is T3, interaction of NOR‐1 with SMRT (Homo sapiens, UniProt Q92570).
T3 construct: coding for the hinge region and LBD of the canonical isoform of NOR‐1; expressed in transfected cells; host or cells: HEK293T
T3 sequence (Q92570 394-623 limits assumed): T1 sequence (Q92570 394-623 limits assumed)
Description: Reporter gene assay for NOR‐1 interaction with SMRT in HEK293T cells. The assay is classed as cell-based. The following applies: n=3, read-out: IC50, antagonism of NOR‐1 interaction with SMRT. On the procedure: (§1) Reporter gene assays for NOR‐1 interactions with NCoR1 and SMRT. The interaction of NOR‐1 with NCoR1 and SMRT was studied in reporter gene assays in HEK293T cells using pFR‐Luc, pRL‐SV40 and pFA‐CMV‐hNOR‐1‐LBD in combination with either pFTI‐CMV‐NCoR1 or pFTI‐CMV‐SMRT, which code for fusion proteins composed of the transcriptional inducer VP16 and fragments of the nuclear receptor co‐regulators NCoR1 or SMRT comprising one interaction motif.[29] […] After 24 h, the medium was changed to Opti‐MEM without supplements and the cells were transiently transfected with above‐described plasmids using Lipofectamine LTX reagent (Invitrogen). […] After 16 h incubation, cells were assayed for luciferase activity using the Dual‐Glo Luciferase Assay System (Promega) and luminescence was measured with a Spark 10 M luminometer (Tecan Group Ltd). Each sample was tested in duplicates in three independent experiments. Firefly luciferase data were divided by renilla luciferase data to obtain relative light units (RLU) and RLU of each test sample were normalized to the negative control (0.1 % DMSO).

The target in assay [6] is T4, interaction of NOR‐1 with NCoR1 (Homo sapiens, UniProt Q92570).
T4 construct: coding for the hinge region and LBD of the canonical isoform of NOR‐1; expressed in transfected cells; host or cells: HEK293T
T4 sequence (Q92570 394-623 limits assumed): T1 sequence (Q92570 394-623 limits assumed)
Description: Reporter gene assay for NOR‐1 interaction with NCoR1 in HEK293T cells. The following applies: n=3, read-out: IC50, antagonism of NOR‐1 interaction with NCoR1. The format is cell-based. How it is done: as §1

T2 sequence (P04386 1-147, added parts left off): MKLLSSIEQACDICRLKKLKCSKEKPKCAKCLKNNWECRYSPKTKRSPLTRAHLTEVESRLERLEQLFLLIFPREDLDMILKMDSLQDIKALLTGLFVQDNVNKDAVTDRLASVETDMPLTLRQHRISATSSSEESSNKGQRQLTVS

Broadly, the IC50 is the concentration needed to halve the response being measured. On to `COC(=O)c1c[nH]c2cccc(Cl)c12` [compound 13], for which, in assay [1] (Gal4‐NOR‐1, HEK293T cells, n=4), the IC50 was over 100 µM.
With `Sc1ncnc2nc[nH]c12` [6‐mercaptopurine], in assay [2], the “binding to the NOR‐1 ligand binding domain (LBD)” value is “does not bind”. Further, the “effect on NOR‐1 activity” value in assay [2] (requires the N‐terminal AF‐1 of NOR‐1) is “enhanced NOR‐1 activity”.
In the case of `COC(=O)c1c[nH]c2c(Cl)cccc12` [compound 16], the IC50 in assay [1] (Gal4‐NOR‐1, HEK293T cells, n=4) was over 100 µM.
As to `Oc1ccc(N2CCNCC2)cc1` [compound 4], in assay [1], the “activity on NOR‐1” value was “inactive (100 μM)”.
Regarding `Clc1ccc(N2CCNCC2)cc1` [compound 6, 4‐chlorophenylpiperazine], the “type of NOR‐1 modulation” value in assay [1] is given as “weak agonists”. The “NOR‐1 activity” value in assay [1] (n=4) is 120±6 % NOR‐1 activity (100 μM).
As for `COC(=O)c1c[nH]c2ccccc12` [compound 1], the “effect on Gal4‐VP16 induced reporter activity” value in assay [3] is on record as “no suppression”. For the same compound, the “type of NOR‐1 modulation” value in assay [1] is listed as “inverse agonist”. In addition, the IC50 in assay [1] (Gal4‐NOR‐1, HEK293T cells, n=4) was 47 ± 8 µM. The “remaining NOR‐1 activity” value in assay [1] (n=4) was 47±6%. For the same compound, the “effect on MYC expression” value in assay [4] is given as “induced MYC expression”.
For the compound `Nc1ccc(N2CCNCC2)cc1` [compound 8, 4‐aminophenylpiperazine], in assay [1], the “type of NOR‐1 modulation” value is reported as “weak agonists”. For the same compound, the “NOR‐1 activity” value in assay [1] (n=4) is 124±2 % NOR‐1 activity (100 μM).
As for `COc1ccc(N2CCNCC2)cc1` [compound 9, 4‐Methoxyphenylpiperazine], in assay [1], the “activity on NOR‐1” value was “inactive (100 μM)”.
Regarding `COC(=O)c1c[nH]c2ccc(C)cc12` [compound 17], the IC50 in assay [1] (Gal4‐NOR‐1, HEK293T cells, n=4) came to 35 ± 8 µM. Also, the “remaining NOR‐1 activity” value in assay [1] (n=4) is on record as 2±7%.
Take `CCCCC[C@H](O)/C=C/[C@H]1C=CC(=O)[C@@H]1C/C=C\CCCC(=O)O` [prostaglandin A2]: the “effect on NOR‐1 activity” value in assay [2] (through direct interaction with its LBD) was “weakly activates NOR‐1”.
For `COC(=O)c1c[nH]c2cc(Cl)ccc12` [compound 15], the IC50 in assay [1] (Gal4‐NOR‐1, HEK293T cells, n=4) was over 100 µM.
Take `CN1CCN(c2ccc(N)cc2)CC1` [compound 10]: the “activity on NOR‐1” value in assay [1] was “inactive (100 μM)”.
Regarding `COC(=O)c1c[nH]c2ccc(OC)cc12` [compound 18], the IC50 in assay [1] (Gal4‐NOR‐1, HEK293T cells, n=4) worked out at 43 ± 5 µM. Further, the “remaining NOR‐1 activity” value in assay [1] (n=4) was 13±4%.
The EC50 is the concentration needed to bring the measured effect to its halfway point. As for `O=C(O)CCc1ccc(Cl)cc1` [compound 3], the “type of NOR‐1 modulation” value in assay [1] is “agonist”. For the same compound, the EC50 in assay [1] (Gal4‐NOR‐1, HEK293T cells, n=4, read-out: EC50 (NOR‐1), agonism) came out at 44 ± 6 µM. In assay [1] (Gal4‐NOR‐1, n=4), the “max. activation of NOR‐1” value is on record as 132±4%. In addition, the “effect of added inverse agonist 1 on the EC50 value of 3 (competition experiment)” value in assay [1] (fixed concentration of 1 (100 μM), n=3) was “did not affect the EC50 value”.
As for `COC(=O)c1c[nH]c2ccc(Cl)cc12` [compound 14], the IC50 in assay [1] (Gal4‐NOR‐1, HEK293T cells, n=4) was determined as 14 ± 2 µM. Besides, in assay [1] (n=4), the “remaining NOR‐1 activity” value is 12±4%. In addition, the “improvement in inverse NOR‐1 agonist potency” value in assay [1] (versus lead 1) worked out at 3.5 fold.
Take `CC(=O)N1CCN(c2ccc(O)cc2)CC1` [compound 2]: in assay [3], the “effect on Gal4‐VP16 induced reporter activity” value was “no suppression”. Further, the “type of NOR‐1 modulation” value in assay [1] is recorded as “inverse agonist”. Also, the IC50 in assay [1] (Gal4‐NOR‐1, HEK293T cells, n=4) came out at 73 µM. In addition, the “remaining NOR‐1 activity” value in assay [1] (n=4) is given as 64±7%.
Regarding `COC(=O)c1c[nH]c2ccc(-c3ccccc3)cc12` [compound 20], the IC50 in assay [1] (Gal4‐NOR‐1, HEK293T cells, n=4) is 4 ± 2 µM. The “remaining NOR‐1 activity” value in assay [1] (n=4) was found to be 49±5%.
In the case of `COC(=O)c1cn(-c2ccccc2)c2ccccc12` [compound 11], the “activity on NOR‐1” value in assay [1] is “inactive”.
With `COC(=O)c1c(Cl)[nH]c2ccccc12` [compound 12], the concentration for half-maximal inhibition (IC50) in assay [1] (Gal4‐NOR‐1, HEK293T cells, n=4) is over 100 µM.
Turning to `COC(=O)c1c[nH]c2ccc(Br)cc12` [compound 19, Methyl 5‐bromoindole‐3‐carboxylate], the IC50 was determined as 9 ± 2 µM in assay [5]; 12 ± 3 µM in assay [6]; 8 ± 1 µM in assay [1] (Gal4‐NOR‐1, HEK293T cells, n=4). Besides, the “remaining NOR‐1 activity” value in assay [1] (n=4) was 7±3%. Moreover, the “effect on MYC expression” value in assay [4] is on record as “induced MYC expression”.
Consider `CC(=O)N1CCN(c2ccccc2)CC1` [compound 5], for which, in assay [1] (n=4), the “NOR‐1 activity” value was 93±1 % NOR‐1 activity (100 μM).
